Source: patent publication EP2020447A1, “Method for identifying compounds modulating adiponectin gene expression” (priority 2007, dated 2009)

Assays:
[1] = test system: human adiponectin gene promoter; test: Luciferase reporter screening assay in C2C12 cells stably expressing the adiponectin promoter construct; format: cell-based; conditions: for concentration at which the greatest transactivation of the target promoter was obtained (maximum activity): stable C2C12 adiponectin promoter-luciferase line, commercial activator (positive control), luciferase read 48 hours after stimulation
Protocol: To determine the luciferase activity, between 50000 and […] cells were seeded in each well and in a P24 plate in duplicate. After approximately 24 hours, the medium was removed from the cells and each well was washed with PBS 1x (because DMEM interferes in the measurement of the reporter gene activity). 100 µl of luciferase developing agent (Bright-GloTM Luciferase Assay system- Promega) were then added to each well. This reagent carries the reporter gene substrate and luminescence is generated as a product of the enzymatic reaction. […] To record the measurement of luciferase activity, the plate was shaken for 30 seconds right after adding the developing reagent and after 2 minutes, the volume was collected and transferred to a 96-well plate (P96), which was read in an illuminometer using the program with a duration of 5 seconds and the arbitrary luminescence units were recorded for each obtained clone or, in other words, for each stable cell line.
For the screening, 30000 cells per well were seeded in white P96 plates because these plates allow amplifying the luminescence signal and improving the reading. The cells were grown in 100 µl of hygromycin-free medium.
The cells were stimulated with the extracts 24 hours after the seeding in the following conditions: • cells to which only complete medium had been added (baseline transcription), • cells to which medium had been added in which the extracts to be assayed are dissolved (vehicle), • cells to which a known commercial activator of the target promoter had been added, thus having a positive control of the transcriptional activation and of the screening protocol and which are useful as a reference when screening those positive extracts increasing the activity of the promoters to be studied, because they provide an activation ratio which is calculated as follows: by dividing the average luminescence signal increase in the presence of the commercial activator by the average luminescence signal provided by the baseline activity of the target promoter in the presence of the vehicle. […]
The luciferase activity directed by the target promoters was developed 48 hours after the stimulation with the extracts, according to the protocol described in example 4, but modified such that once the medium was removed from the cells and they were washed with PBS 1x, 40 µl of luciferase developing reagent were added to each well and the plate was read after 2 minutes.
Luminescence values measured in RLUs (Relative Luciferase Units) obtained in the presence of each of the marine extracts which have been assayed were then plotted against the average luminescence signal obtained in baseline conditions (in the presence of the vehicle). […]

[2] = test system: C2C12 cells; test: Toxicity of the commercial activators for the cells in the screening assay; format: cell-based, Mus musculus

Question: Which results are given for `O=c1c(-c2ccc(O)cc2)coc2cc(O)ccc12` [daidzein]?
Answer: potency in the screening assays (comparison in words) ([1]; comparison of commercial activators of the adiponectin promoter): more potent than RGZ; concentration at which the greatest transactivation of the target promoter was obtained (maximum activity) [1]: 20 µM; toxicity for the cells (comparison in words) [2]: less toxic for the cells than Genistein

Question: For `O=c1c(-c2ccc(O)cc2)coc2cc(O)cc(O)c12` [genistein], which “concentration at which the greatest transactivation of the target promoter was obtained (maximum activity)” value [1] is on record?
Answer: 20 µM

Question: For `CN(CCOc1ccc(CC2SC(=O)NC2=O)cc1)c1ccccn1` (centres unmarked) [rosiglitazone], which “concentration at which the greatest transactivation of the target promoter was obtained (maximum activity)” value [1] is on record?
Answer: 20 µM
